According to PubChem BioAssay AID540252 (Sanford-Burnham Center for Chemical Genomics, 2011):
pIC50: −log10 of the molar value. Active and inactive are the calls of the source. How the calls were made is not given here.

Target: glucose-6-phosphate dehydrogenase-6-phosphogluconolactonase (Plasmodium falciparum 3D7)
Assay: PfG6PD enzyme inhibitors, direct NADPH readout, dose response, orthogonal assay, biochemical, end-point NADPH detection (AID 540252)
Details: purified PfG6PD enzyme

SMILES | IC50 | pIC50
CCc1ccc(OCC(=O)N/N=C/c2cc([N+](=O)[O-])ccc2N2CCOCC2)cc1 | > 80 µM (inactive) | –
O=C(Nc1ccc(N2CCCC2)cc1)c1cccc(-c2cc3ccccc3oc2=O)c1 | > 80 µM (inactive) | –
Cc1cc(C)c2c(=N)c3ccccc3n(CCCCCCCCn3c4ccccc4c(=N)c4c(C)cc(C)nc43)c2n1 | > 80 µM (inactive) | –
Cc1[nH]c2ccccc2c1/C=N/Nc1nncn1N | > 80 µM (inactive) | –
COc1cccc(C(=O)Nc2nnc(C(C)C)s2)c1 | > 80 µM (inactive) | –
Cc1ccc(-c2c(C(=O)N/N=C/c3cccs3)nnn2-c2nonc2N)cc1 | > 80 µM (inactive) | –
CCc1nnc(NC(=O)c2ccc(Cl)nc2)s1 | > 80 µM (inactive) | –
Cc1ccc(S(=O)(=O)NNc2ccccc2)cc1 | – | 4.42
CN1/C(=C\C(=O)c2cccs2)Sc2ccccc21 | > 80 µM (inactive) | –
C[c-]1[c-](C)[c-](C)[c-](C)[c-]1C.[Fe].c1cc2nccc(N3CCCC3)[c-]2c1 (stereo unspecified) | > 80 µM (inactive) | –
CCN(CC)C(=S)SSC(=S)N(CC)CC | > 80 µM (inactive) | –
CCN=c1scc(C)n1/N=C/c1ccc(O)c(O)c1O | > 80 µM (inactive) | –
C=CCN1C=C2C(=O)C(C)(OC(=O)CCC(=O)OC)C(=O)C(Br)=C2C=C1c1ccc(OC)cc1 (stereo unspecified) | > 80 µM (inactive) | –
O=C(O)c1cc(N2C(=O)C=CC2=O)cc(N2C(=O)C=CC2=O)c1 | – | 4.72
CCNc1nc(NC(C)C)nc(NS(=O)(=O)c2ccc(Cl)cc2)n1 | > 80 µM (inactive) | –
Cc1ccc(NC(=O)Cn2sc3ccccc3c2=O)cc1 | – | 4.82
COc1cc(-c2nnc3n2N=C(c2ccccc2)CS3)cc(OC)c1OC | > 80 µM (inactive) | –
C[n+]1c(-c2ccccc2)cc2c(=Cc3ccc([N+](=O)[O-])cc3)c3ccccc3n21 | > 80 µM (inactive) | –
NNC(=O)CN1C(c2ccccc2Br)=Nc2ccc(Br)cc2C1c1ccccc1 (stereo unspecified) | > 80 µM (inactive) | –
Cn1c(=O)[nH]c(=O)c2c1[nH]c(=S)n2CCCc1ccccc1 | – | 4.18
Cc1ccc2nc(SCC(=O)NC3CCCc4ccccc43)[nH]c2c1 (stereo unspecified) | > 80 µM (inactive) | –
O=[N+]([O-])c1c(NCCCO)cc(Sc2nc3ccccc3s2)c2nonc12 | > 80 µM (inactive) | –
COC(=O)CCC(=O)OC1(C)C(=O)C2=CN(C3CC3)C(c3ccc(OC)cc3)=CC2=C(Br)C1=O (stereo unspecified) | > 80 µM (inactive) | –

SMILES | IC50 | pIC50
CC(NC(=O)c1sc2cc([N+](=O)[O-])ccc2c1Cl)C(C)(C)C (stereo unspecified) | > 80 µM (inactive) | –
O=C(CNC(=O)c1ccc(Br)cc1)NCC(=O)OCC(=O)c1ccc([N+](=O)[O-])cc1 | > 80 µM (inactive) | –
COc1cc(CNc2ccc(N3CCCC3)cc2)ccc1OCc1ccccc1F | > 80 µM (inactive) | –
COc1ccccc1N1C(=O)C=C(Sc2nc(C)cc(C)n2)C1=O | > 80 µM (inactive) | –
CNS(=O)(=O)c1ccc(-c2ccc(C=C3C(=O)NC(=O)NC3=O)o2)cc1 | > 80 µM (inactive) | –
Nc1cc(N)c(OCC(F)(F)F)cc1OCC(F)(F)F | > 80 µM (inactive) | –
Cc1nn(-c2ccccc2)c(Cl)c1/C=N/Nc1nc2ccccc2n1C | > 80 µM (inactive) | –
Cc1ccc(NC(=O)c2cc(N3C(=O)C=CC3=O)ccc2N2CCOCC2)cc1 | > 80 µM (inactive) | –
[O-]/[N+](=C\c1ccncc1)c1ccccc1 | > 80 µM (inactive) | –
CCN(CC)c1ccc(C(=C2C=CC(=[N+](CC)CC)C=C2)c2ccc(N(CC)CC)cc2)cc1 | – | 4.40
COc1cc(N=c2ssnc2Cl)c(OC)cc1Cl | – | 4.53
COc1ccc(NC2CCCN(Cc3cccc4cnccc34)C2)cc1OC (stereo unspecified) | > 80 µM (inactive) | –
CC(C)(C)c1ccc(C(=O)Nc2sc3c(c2C(=O)O)CCC3)cc1 | > 80 µM (inactive) | –
COC(=O)c1ccccc1NC1=C/C(=N\S(=O)(=O)c2cccs2)c2ccccc2C1=O | > 80 µM (inactive) | –
Cc1ccc(NC(=O)Cn2sc3nc(C)cc(C)c3c2=O)c(Cl)c1 | > 80 µM (inactive) | –
CCN(CC)c1ccc(NC(=O)c2ccccc2Br)cc1S(=O)(=O)Nc1ccccc1OC | > 80 µM (inactive) | –
O=c1c2cc(F)ccc2sn1-c1ccccc1Cl | – | 4.86
O=[N+]([O-])c1cnc(Sc2ccncn2)c([N+](=O)[O-])c1 | – | 4.31
COc1cc(N=Cc2c(CO)cnc(C)c2O)cc(OC)c1OC | > 80 µM (inactive) | –
Oc1ccc(C23CC4CC(CC(C4)C2)C3)cc1O | – | 4.28
CCOC(=O)c1ccc(-n2c(N)c(C(=O)NCC3CCCO3)sc2=S)cc1 (stereo unspecified) | > 80 µM (inactive) | –
O=c1c2ccccc2sn1-c1cc(S(=O)(=O)N2CCOCC2)ccc1N1CCCC1 | – | 4.82
COc1ccc(-n2sc3ccccc3c2=O)cc1 | – | 4.88
